Reference: patent US20240158446A1, “CYCLIC COMPOUND HAVING SELECTIVE INHIBITORY ACTION ON KRAS OVER HRAS AND NRAS” (CHUGAI SEIYAKU KABUSHIKI KAISHA, priority 2021, published 2024)
pKd: −log10 of the molar value.

Key:
[1] = tested on: human lung cancer strain NCI-H441; assay: cells; conditions: NCI-H441, 96 h, read-out: NCI-H441 IC50 (nM), NCI-H441 cell proliferation, 4 days, CellTiter-Glo;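 note: cell proliferation inhibition after four days measured by CellTiter-Glo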
[2] = target: GDP-bound KRAS wild-type protein (Homo sapiens, UniProt P01116); assay: Binding to KRAS by surface plasmon resonance (SPR), Single Cycle Kinetics; conditions: SPR, Single Cycle Kinetics, GDP-bound KRAS wild-type protein; read-out: KRAS KD
[3] = target: GDP-bound HRAS wild-type protein (Homo sapiens, UniProt P01112); assay: Binding to HRAS by surface plasmon resonance (SPR), Single Cycle Kinetics; conditions: ratio of KD for GDP-bound HRAS wild-type protein to KD for KRAS, SPR
[4] = target: GDP-bound NRAS wild-type protein (Homo sapiens, UniProt P01111); assay: Binding to NRAS by surface plasmon resonance (SPR), Single Cycle Kinetics; conditions: ratio of KD for GDP-bound NRAS wild-type protein to KD for KRAS, SPR
GDP-bound NRAS wild-type protein, sequence (P01111 whole entry): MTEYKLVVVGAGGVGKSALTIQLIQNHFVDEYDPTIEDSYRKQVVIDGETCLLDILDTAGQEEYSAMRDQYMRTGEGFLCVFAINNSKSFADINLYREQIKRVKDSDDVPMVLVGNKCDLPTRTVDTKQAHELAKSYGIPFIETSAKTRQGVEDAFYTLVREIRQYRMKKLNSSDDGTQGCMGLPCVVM

GDP-bound KRAS wild-type protein, sequence (P01116 whole entry): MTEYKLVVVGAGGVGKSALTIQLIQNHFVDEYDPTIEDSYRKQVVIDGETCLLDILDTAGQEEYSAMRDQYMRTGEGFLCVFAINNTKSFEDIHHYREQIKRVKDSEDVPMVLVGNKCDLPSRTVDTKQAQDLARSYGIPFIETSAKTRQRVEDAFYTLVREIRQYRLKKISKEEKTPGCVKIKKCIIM
GDP-bound HRAS wild-type protein, sequence (P01112 whole entry): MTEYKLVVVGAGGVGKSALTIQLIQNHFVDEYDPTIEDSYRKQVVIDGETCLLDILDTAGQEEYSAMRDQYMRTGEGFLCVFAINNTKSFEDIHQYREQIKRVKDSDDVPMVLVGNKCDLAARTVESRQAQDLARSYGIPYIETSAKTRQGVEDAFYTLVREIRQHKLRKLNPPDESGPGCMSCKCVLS

IC50 [1] | pKd [2] | Compound | HRAS/KRAS (KD ratio) [3] | NRAS/KRAS (KD ratio) [4]
11.6 nM | 10.01 | CCCN(C)C(=O)[C@@H]1CC(=O)N(C)[C@@H](COCC)C(=O)N[C@@H]([C@@H](C)CC)C(=O)N(C)CC(=O)N(C)[C@H]2C/C=C\CCN(C2=O)[C@@H](Cc2ccc(C(F)(F)F)cc2)C(=O)N(C)CC(=O)N[C@@H](CCc2ccc(C(F)(F)F)c(OC)c2)C(=O)N2C[C@H](OCC)C[C@H]2C(=O)NC2(CC(C)(C)C2)C(=O)N(C)[C@@H](C2CCCC2)C(=O)N1C [PP2012] | A (a compound having 10 or more and less than 20 is denoted as A) | AA (a compound having 20 or more is denoted as AA)
7.7 nM | 9.89 | CCCN(C)C(=O)[C@@H]1CC(=O)N(C)[C@@H](CC(F)F)C(=O)N[C@@H]([C@@H](C)CC)C(=O)N(C)CC(=O)N(C)[C@H]2C/C=C\CCN(C2=O)[C@@H](Cc2ccc(C(F)(F)F)cc2)C(=O)N(C)CC(=O)N[C@@H](CCc2ccc(C(F)(F)F)c(OC)c2)C(=O)N2C[C@H](OCC)C[C@H]2C(=O)NC2(CCC2)C(=O)N(C)[C@@H](C2CCCC2)C(=O)N1C [PP2013] | B (a compound having 3 or more and less than 10 is denoted as B) | A (a compound having 10 or more and less than 20 is denoted as A)
6.9 nM | 10.03 | CCOC[C@H]1C(=O)N[C@@H]([C@@H](C)CC)C(=O)N(C)CC(=O)N(C)[C@H]2C/C=C\CCN(C2=O)[C@@H](Cc2ccc(C(F)(F)F)cc2)C(=O)N(C)CC(=O)N[C@@H](CCc2ccc(C(F)(F)F)c(OC)c2)C(=O)N2C[C@H](OCC)C[C@H]2C(=O)NC2(CC(C)(C)C2)C(=O)N(C)[C@@H](C2CCCC2)C(=O)N(C)[C@H](C(=O)N(C)CC)CC(=O)N1C [PP2014] | A (a compound having 10 or more and less than 20 is denoted as A) | A (a compound having 10 or more and less than 20 is denoted as A)
5.6 nM | 9.96 | CCCN(C)C(=O)[C@@H]1CC(=O)N(C)[C@@H](COCC)C(=O)N[C@@H]([C@@H](C)CC)C(=O)N(C)CC(=O)N(C)[C@H]2C/C=C\CCN(C2=O)[C@@H](Cc2ccc(C(F)(F)F)cc2)C(=O)N(C)CC(=O)N[C@@H](CCc2ccc(C(F)(F)F)c(OC)c2)C(=O)N2C[C@H](OCC)C[C@H]2C(=O)NC2(CCC2)C(=O)N(C)[C@@H](C2CCCC2)C(=O)N1C [PP2015] | B (a compound having 3 or more and less than 10 is denoted as B) | A (a compound having 10 or more and less than 20 is denoted as A)
8.2 nM | 9.96 | CCCOC[C@H]1C(=O)N[C@@H]([C@@H](C)CC)C(=O)N(C)CC(=O)N(C)[C@H]2C/C=C\CCN(C2=O)[C@@H](Cc2ccc(C(F)(F)F)cc2)C(=O)N(C)CC(=O)N[C@@H](CCc2ccc(C(F)(F)F)c(OC)c2)C(=O)N2C[C@H](OCC)C[C@H]2C(=O)NC2(CCC2)C(=O)N(C)[C@@H](C2CCCC2)C(=O)N(C)[C@H](C(=O)N(C)CC)CC(=O)N1C [PP2016] | A (a compound having 10 or more and less than 20 is denoted as A) | A (a compound having 10 or more and less than 20 is denoted as A)
5.3 nM | 10.00 | CCCN(C)C(=O)[C@@H]1CC(=O)N(C)[C@@H](CCOC)C(=O)N[C@@H]([C@@H](C)CC)C(=O)N(C)CC(=O)N(C)[C@H]2C/C=C\CCN(C2=O)[C@@H](Cc2ccc(C(F)(F)F)cc2)C(=O)N(C)CC(=O)N[C@@H](CCc2ccc(C(F)(F)F)c(OC)c2)C(=O)N2C[C@H](OCC)C[C@H]2C(=O)NC2(CCC2)C(=O)N(C)[C@@H](C2CCCC2)C(=O)N1C [PP2018] | B (a compound having 3 or more and less than 10 is denoted as B) | A (a compound having 10 or more and less than 20 is denoted as A)
8.3 nM | 9.72 | CCCN(C)C(=O)[C@@H]1CC(=O)N(C)[C@@H](C(C)C)C(=O)N[C@@H]([C@@H](C)CC)C(=O)N(C)CC(=O)N(C)[C@H]2C/C=C\CCN(C2=O)[C@@H](Cc2ccc(C(F)(F)F)cc2)C(=O)N(C)CC(=O)N[C@@H](CCc2ccc(C(F)(F)F)c(OC)c2)C(=O)N2C[C@H](OCC)C[C@H]2C(=O)NC2(CCC2)C(=O)N(C)[C@@H](C2CCCC2)C(=O)N1C [PP2020] | A (a compound having 10 or more and less than 20 is denoted as A) | A (a compound having 10 or more and less than 20 is denoted as A)
4.9 nM | 9.92 | CCO[C@@H]1C[C@H]2C(=O)NC3(CCC3)C(=O)N(C)[C@@H](C3CCCC3)C(=O)N(C)[C@H](C(=O)N(C)CC)CC(=O)N(C)[C@@H](C3CC3)C(=O)N[C@@H]([C@@H](C)CC)C(=O)N(C)CC(=O)N(C)[C@H]3C/C=C\CCN(C3=O)[C@@H](Cc3ccc(C(F)(F)F)cc3)C(=O)N(C)CC(=O)N[C@@H](CCc3ccc(C(F)(F)F)c(OC)c3)C(=O)N2C1 [PP2021] | B (a compound having 3 or more and less than 10 is denoted as B) | A (a compound having 10 or more and less than 20 is denoted as A)
22.6 nM | 10.05 | CCOC[C@H]1C(=O)N[C@@H]([C@@H](C)CC)C(=O)N(C)CC(=O)N(C)[C@H]2C/C=C\CCN(C2=O)[C@@H](Cc2ccc(C(F)(F)F)cc2)C(=O)N(C)CC(=O)N[C@@H](CCc2ccc(C(F)(F)F)c(OC)c2)C(=O)N2C[C@@H](C)C[C@H]2C(=O)NC2(CCC2)C(=O)N(C)[C@@H](C2CCCC2)C(=O)N(C)[C@H](C(=O)N(C)CC)CC(=O)N1C [PP2026] | A (a compound having 10 or more and less than 20 is denoted as A) | A (a compound having 10 or more and less than 20 is denoted as A)
4.5 nM | 9.92 | CCCN(C)C(=O)[C@@H]1CC(=O)N(C)[C@@H](CC(F)F)C(=O)N[C@@H]([C@@H](C)CC)C(=O)N(C)CC(=O)N(C)[C@H]2C/C=C\CCN(C2=O)[C@@H](Cc2ccc(C(F)(F)F)cc2)C(=O)N(C)CC(=O)N[C@@H](CCc2cc(F)c(C(F)(F)F)c(F)c2)C(=O)N2C[C@H](OCC)C[C@H]2C(=O)NC2(CC(C)(C)C2)C(=O)N(C)[C@@H](C2CCCC2)C(=O)N1C [PP2030] | A (a compound having 10 or more and less than 20 is denoted as A) | A (a compound having 10 or more and less than 20 is denoted as A)
5.5 nM | 9.85 | CCCN(C)C(=O)[C@@H]1CC(=O)N(C)[C@@H](COCC)C(=O)N[C@@H]([C@@H](C)CC)C(=O)N(C)CC(=O)N(C)[C@H]2C/C=C\CCN(C2=O)[C@@H](Cc2ccc(C(F)(F)F)cc2)C(=O)N(C)CC(=O)N[C@@H](CCc2cc(F)c(C(F)(F)F)c(F)c2)C(=O)N2C[C@H](OCC)C[C@H]2C(=O)NC2(CC(C)(C)C2)C(=O)N(C)[C@@H](C2CCCC2)C(=O)N1C [PP2031] | B (a compound having 3 or more and less than 10 is denoted as B) | B (a compound having 3 or more and less than 10 is denoted as B)
8.1 nM | 10.21 | CCOC[C@H]1C(=O)N[C@@H]([C@@H](C)CC)C(=O)N(C)CC(=O)N(C)[C@H]2C/C=C\CCN(C2=O)[C@@H](Cc2ccc(C(F)(F)F)cc2)C(=O)N(C)CC(=O)N[C@@H](CCc2cc(F)c(C(F)(F)F)c(F)c2)C(=O)N2C[C@H](OCC)C[C@H]2C(=O)NC2(CC(C)(C)C2)C(=O)N(C)[C@@H](C2CCCC2)C(=O)N(C)[C@H](C(=O)N(C)CC)CC(=O)N1C [PP2032] | B (a compound having 3 or more and less than 10 is denoted as B) | A (a compound having 10 or more and less than 20 is denoted as A)
